A word on the Ki: it is a measure of affinity in units of concentration, obtained from inhibition or displacement. As a reminder, the EC50 is the concentration at which the effect is half-maximal.

The target of data set [1] is human SSTR2 (Homo sapiens (Human), UniProt P30874). Nature of the data set: Radioligand binding assay, human SSTR2. The text has this:
(§1) Radioligand Binding Assays
(§2) Method description for binding assays with human Somatostatin receptors by use of CHO cell membranes expressing recombinant human SSTR1 or human SSTR2 or human SSTR3 or human SSTR4 or human SSTR5
(§3) Receptor binding assays refer to a technique in which labeled receptor ligands are used to detect binding to a receptor. In competition experiments test compounds, which are not labeled, compete with the binding side of a labeled ligand. The displacement of the labeled ligand by the test compound leads to a decreased signal.
(§4) For the binding experiments 200 μL of membrane homogenate from one of the following protein amounts is used: hSSTR1 (40 μg/well); hSSTR2 (25 μg/well); hSSTR3 (1.5 μg/well); hSSTR4 (0.5 μg/well); hSSTR5 (25 μg/well). The homogenate is incubated with 0.05 nM of radioligand ([3-125I-Tyr]-Somatostatin-(1-14)) in addition to increasing concentrations of a test compound or vehicle (100% binding) in a total volume of 250 μL using a Hepes buffer (10 mM, EDTA 1 mM, MgCl2 5 mM, pH7.6, BSA 0.5%, Bacitracin 0.003%, DMSO 1% for 180 min at room temperature. The incubation is terminated by filtration with ice cold NaCl 0.9% through polyethyleneimine treated (0.3%) GF/B glass fiber filters using a cell harvester. The protein-bound radioactivity is measured in a suitable reader. The non-specific binding is defined as radioactivity bound in the presence of 1 μM Somatostatin-14 during the incubation period.
(§5) The analysis of the concentration-binding curves is performed by computer-assisted nonlinear least square curve fitting method using the model of one receptor binding site.

Data set [2] deals with human SSTR3 (Homo sapiens (Human), UniProt P32745). The experiment in a line: Radioligand binding assay, human SSTR3.
From the text: as §1, §2, §3, §4, §5

Data set [3] is described as follows: Metabolic stability in human liver microsomes. The class given is in vitro ADME. The note with it: pooled human liver microsomes, 37° C., 1 μM test compound, NADPH; for half-life at 1 μM: pH 7.6, read-out: Half-life t1/2. The protocol:
The metabolic stability of the compounds according to the invention may be investigated as follows:
The metabolic degradation of the test compound is assayed at 37° C. with pooled human liver microsomes. The final incubation volume of 100 μl per time point contains TRIS buffer pH 7.6 at room temperature (0.1 M), magnesium chloride (5 mM), microsomal protein (1 mg/mL) and the test compound at a final concentration of 1 μM. Following a short preincubation period at 37° C., the reactions are initiated by addition of beta-nicotinamide adenine dinucleotide phosphate, reduced form (NADPH, 1 mM), and terminated by transferring an aliquot into solvent after different time points. After centrifugation (10000 g, 5 min), an aliquot of the supernatant is assayed by LC-MS/MS for the amount of parent compound. The half-life is determined by the slope of the semi-logarithmic plot of the concentration-time profile.
A general note: Liver microsomes are vesicles of endoplasmic reticulum, rich in cytochrome P450 enzymes.

For data set [4], the target named is human SSTR1 (Homo sapiens (Human), UniProt P30872). The experiment in a line: Radioligand binding assay, human SSTR1.
From the text: as §1, §2, §3, §4, §5

For data set [5], the target named is human SSTR5 (Homo sapiens (Human), UniProt P35346). Nature of the data set: Radioligand binding assay, human SSTR5.
From the text: as §1, §2, §3, §4, §5

In data set [6] the target is human SSTR4 (Homo sapiens (Human), UniProt P31391). Nature of the data set: Radioligand binding assay, human SSTR4.
From the text: as §1, §2, §3, §4, §5

In data set [7] the target is human Somatostatin 4 receptor (SSTR4) (Homo sapiens (Human), UniProt P31391). The experiment in a line: cAMP assay with human Somatostatin 4 receptor. It is filed as cell-based. The note with it: hSSTR4 expressing H4 cells, inhibition of Forskolin-stimulated cAMP; read-out: SSTR4 agonism EC50. The protocol: Method description for cAMP assay with human Somatostatin 4 receptor.
The activation of the SSTR4 receptor (Gi coupled) causes an inhibition of intracellular cAMP after stimulation with Forskolin, which can be quantifiable by use of a suitable assay Kit and an adequate plate reader. This technique is used to characterize pharmacological effects of the SSTR4 receptor agonists by use of hSSTR4 expressing H4 cells.
Compounds are dissolved and diluted in DMSO. The final test solution contains […]. The cAMP standard (Lance cAMP 384 Kit; PerkinElmer, Cat #AD0264) is prepared in assay buffer (HBSS with 0.1% BSA, 5 mM HEPES, […], pH 7.4) containing 1% DMSO and the cAMP standard curve is included at least on one plate. Cells are centrifuged and suspended in assay buffer (incl. 1:100 diluted Alexa antibody).
For the assay 5 μl of a cell suspension (approximately 5000 cells/well)—incl. Alexa antibody (diluted 1:100) are added into a 384 well MTP microtitre plate excepting one row or column (depending on the plate layout), which is reserved for the standard curve. Then 2 μl of compound sample is added as concentration response curve (e.g. 1e-5 M to 6e-10 M), usually in triplicates. Each assay contains incubations with vehicle controls instead of compound as controls for non-inhibited cAMP generation (100% CTL; ‘high values’) and incubations with 1 μM Somatosatin as controls for full inhibition and background (0% CTL; ‘low values’). After approximately 10-15 min incubation time 3 μl Forskolin (dissolved in DMSO, final conc. 15 μM) is added. Then the plates are shaken briefly and incubated for 60 min at room temperature. After 60 min 10 μl of the detection mix is added into all wells followed by an additional incubation period of 1 h. The plates are read in a suitable plate reader.
The analysis of the data is based on the “ratio” of the time-resolved fluorescence measurements of donor and acceptor fluorophore (Ex: 320 nm; Em1: 665 nm; Em2: 615 nm; ratio 665/615). From this ratio, cAMP concentrations are calculated from standard curve and the EC50 is estimated by least square curve fit program.

human Somatostatin 4 receptor (SSTR4), sequence (P31391 whole entry): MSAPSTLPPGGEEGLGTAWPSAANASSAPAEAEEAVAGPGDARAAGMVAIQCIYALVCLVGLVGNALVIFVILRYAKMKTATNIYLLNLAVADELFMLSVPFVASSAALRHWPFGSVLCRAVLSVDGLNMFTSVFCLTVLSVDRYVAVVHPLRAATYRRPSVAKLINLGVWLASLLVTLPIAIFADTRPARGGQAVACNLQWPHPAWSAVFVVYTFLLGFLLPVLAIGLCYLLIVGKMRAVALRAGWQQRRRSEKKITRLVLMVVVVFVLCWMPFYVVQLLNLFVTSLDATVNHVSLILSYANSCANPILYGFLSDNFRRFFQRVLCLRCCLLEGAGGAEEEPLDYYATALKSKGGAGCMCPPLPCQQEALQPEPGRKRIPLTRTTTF
human SSTR4, sequence (P31391 whole entry): as above
human SSTR2, sequence (P30874 whole entry): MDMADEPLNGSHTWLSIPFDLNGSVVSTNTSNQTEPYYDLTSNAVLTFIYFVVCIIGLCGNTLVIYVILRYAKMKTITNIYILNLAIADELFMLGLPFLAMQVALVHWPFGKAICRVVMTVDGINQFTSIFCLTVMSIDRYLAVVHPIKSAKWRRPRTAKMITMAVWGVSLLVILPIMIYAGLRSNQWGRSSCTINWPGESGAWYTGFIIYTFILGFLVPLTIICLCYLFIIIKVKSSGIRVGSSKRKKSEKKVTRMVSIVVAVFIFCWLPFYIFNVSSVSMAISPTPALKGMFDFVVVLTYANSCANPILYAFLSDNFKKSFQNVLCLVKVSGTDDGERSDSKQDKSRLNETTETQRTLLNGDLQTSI
human SSTR3, sequence (P32745 whole entry): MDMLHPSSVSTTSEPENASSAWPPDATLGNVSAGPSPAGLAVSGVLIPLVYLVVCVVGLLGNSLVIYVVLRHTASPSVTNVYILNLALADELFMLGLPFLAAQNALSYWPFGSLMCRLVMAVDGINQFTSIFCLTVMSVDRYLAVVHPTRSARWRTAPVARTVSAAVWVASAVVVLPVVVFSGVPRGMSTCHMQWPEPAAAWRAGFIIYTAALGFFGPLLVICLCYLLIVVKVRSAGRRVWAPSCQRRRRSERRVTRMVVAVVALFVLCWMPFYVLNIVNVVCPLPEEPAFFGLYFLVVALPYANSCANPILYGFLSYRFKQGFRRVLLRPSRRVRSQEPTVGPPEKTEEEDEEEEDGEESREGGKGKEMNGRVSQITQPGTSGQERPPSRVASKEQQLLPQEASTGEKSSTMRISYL
human SSTR5, sequence (P35346 whole entry): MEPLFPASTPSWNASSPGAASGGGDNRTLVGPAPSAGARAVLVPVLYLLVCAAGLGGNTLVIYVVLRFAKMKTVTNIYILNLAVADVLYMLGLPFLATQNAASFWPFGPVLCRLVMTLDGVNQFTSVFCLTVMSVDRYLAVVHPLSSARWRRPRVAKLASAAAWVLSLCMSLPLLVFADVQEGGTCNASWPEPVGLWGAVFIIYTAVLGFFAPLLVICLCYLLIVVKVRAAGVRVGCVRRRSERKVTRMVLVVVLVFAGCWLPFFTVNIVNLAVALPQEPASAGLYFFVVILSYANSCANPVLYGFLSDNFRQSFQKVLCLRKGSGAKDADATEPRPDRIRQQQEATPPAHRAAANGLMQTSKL
human SSTR1, sequence (P30872 whole entry): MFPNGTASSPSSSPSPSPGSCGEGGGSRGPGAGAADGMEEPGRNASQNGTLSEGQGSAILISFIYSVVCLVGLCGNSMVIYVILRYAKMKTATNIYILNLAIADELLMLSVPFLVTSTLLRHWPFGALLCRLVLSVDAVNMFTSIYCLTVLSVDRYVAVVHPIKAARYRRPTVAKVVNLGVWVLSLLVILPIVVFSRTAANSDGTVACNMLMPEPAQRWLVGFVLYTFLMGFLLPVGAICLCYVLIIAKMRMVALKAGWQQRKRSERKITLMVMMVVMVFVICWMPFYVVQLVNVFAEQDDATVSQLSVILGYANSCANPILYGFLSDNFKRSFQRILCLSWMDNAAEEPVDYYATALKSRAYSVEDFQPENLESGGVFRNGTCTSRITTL

Turning to `CC(C)(NC(=O)c1cccc2c1OCCNC2)c1ccnc2ccccc12` [Example 6], the Ki was 9.63 µM in data set [1]; 8.71 µM in data set [2]; 9.01 µM in data set [4]; 9.86 µM in data set [5]; 0.104 µM in data set [6]. Besides, in data set [3], the “Half-life t1/2” value came to 2.17 h. Moreover, in data set [7], the EC50 was determined as 0.0084 µM.
With `Cn1nc(C(C)(C)NC(=O)c2cccc3c2OCCNC3)c2ccccc21` [Example 18], the Ki in data set [1] came out at 9.63 µM; in data set [2], 8.71 µM; in data set [4], 7.82 µM; in data set [5], 9.86 µM; in data set [6] it was 0.0395 µM. In addition, in data set [3], the half-life at 1 μM stood at 1.22 h. For the same compound, the concentration for a half-maximal effect (EC50) in data set [7] stood at 0.0044 µM.
As for `Cn1nc(C(C)(C)NC(=O)c2nccc3c2OCCNC3)c2ccccc21` [Example 19], the inhibitory constant (Ki) in data set [1] is 9.6 µM; in data set [2], 8.62 µM; in data set [4] it was 9.45 µM; in data set [5] it was 9.75 µM; in data set [6], 0.613 µM. Moreover, the “Half-life t1/2” value in data set [3] is 2.17 h. In data set [7], the EC50 was 0.0146 µM.
Consider `Cn1nc(C(C)(C)NC(=O)c2ccnc3c2OCCNC3)c2ccccc21` [Example 20], for which the inhibition constant (Ki) in data set [1] came to 9.6 µM; in data set [2], 8.62 µM; in data set [4], 9.45 µM; in data set [5] it was 9.75 µM; in data set [6], 0.574 µM. For the same compound, the half-life at 1 μM in data set [3] was above 2.17 h. Moreover, the EC50 in data set [7] was determined as 0.0175 µM.
Consider `Cc1nnc(C(C)(C)NC(=O)c2cccc3c2OCCNC3)c2ccccc12` [Example 26], for which the Ki was determined as 9.6 µM in data set [1]; 8.62 µM in data set [2]; 9.45 µM in data set [4]; 9.75 µM in data set [5]; 0.065 µM in data set [6]. Also, in data set [3], the half-life at 1 μM is above 2.17 h. For the same compound, in data set [7], the EC50 came to 0.0025 µM.
Turning to `Cc1cccc2c(C(C)(C)NC(=O)c3cccc4c3OCCNC4)n[nH]c12` [Example 33], the inhibition constant (Ki) in data set [1] amounted to 9.6 µM; in data set [2], 8.62 µM; in data set [4], 9.45 µM; in data set [5] it was 9.75 µM; in data set [6] it was 0.0217 µM. In data set [3], the half-life at 1 μM was found to be 1.65 h. Moreover, in data set [7], the EC50 was 0.0008 µM.
For `Cn1nc(C(C)(C)NC(=O)c2cccc3c2OCCNC3)c2cccc(F)c21` [Example 39], the inhibitory constant (Ki) is 9.63 µM in data set [1]; 8.71 µM in data set [2]; 9.01 µM in data set [4]; 9.86 µM in data set [5]; 0.0291 µM in data set [6]. The half-life at 1 μM in data set [3] stood at 0.85 h. The EC50 in data set [7] was 0.0021 µM.
For the compound `Cc1cccc2c(C(C)(C)NC(=O)c3cncc4c3OCCNC4)nn(C)c12` [Example 42], the Ki worked out at 9.6 µM in data set [1]; 8.62 µM in data set [2]; 9.45 µM in data set [4]; 9.75 µM in data set [5]; 0.532 µM in data set [6]. The half-life at 1 μM in data set [3] was above 2.17 h. Besides, in data set [7], the EC50 came to 0.0158 µM.
As to `CC(C)(NC(=O)c1cccc2c1OCCNC2)c1n[nH]c2c(Cl)cccc12` [Example 44], the half-life at 1 μM in data set [3] is above 2.17 h. Further, the 50% effective concentration (EC50) in data set [7] stood at 0.0013 µM.
On the same counts, the results for `Cc1cccc2c(C(C)(C)NC(=O)c3cccc4c3OCCNC4)ncnc12` [Example 45] are 1.83 h and 0.0092 µM.
The like results for `CC(C)(NC(=O)c1cccc2c1OCCNC2)c1ncnc2ccccc12` [Example 46] were, in that order, above 2.17 h and 0.0092 µM.
As to `Cc1cccn2c(C(C)(C)NC(=O)c3cccc4c3OCCNC4)ncc12` [Example 47], the Ki in data set [1] was determined as 9.63 µM; in data set [2], 8.71 µM; in data set [4], 9.01 µM; in data set [5], 9.86 µM; in data set [6] it was 0.0532 µM. In data set [3], the half-life at 1 μM was above 2.17 h. Besides, in data set [7], the EC50 came to 0.002 µM.
Take `CC(C)(NC(=O)c1cccc2c1OCCNC2)c1ncc2c(Cl)cccn12` [Example 48]: the half-life at 1 μM in data set [3] was found to be 1.42 h. The EC50 in data set [7] is 0.0017 µM.
On to `Cc1cccn2c(C3(NC(=O)c4cccc5c4OCCNC5)CC3)ncc12` [Example 49], for which, in data set [3], the half-life at 1 μM stood at 1.55 h. Further, the EC50 in data set [7] came out at 0.0015 µM.
The like results for `Cc1nc(C(C)(C)NC(=O)c2cccc3c2OCCNC3)n2cccc(F)c12` [Example 50] were, in that order, 1.38 h and 0.002 µM.
With `COc1cccn2c(C(C)(C)NC(=O)c3cccc4c3OCCNC4)ncc12` [Example 51], the “Half-life t1/2” value in data set [3] worked out at 2.17 h. Moreover, in data set [7], the EC50 amounted to 0.0043 µM.
For `Cc1cccn2c(C(C)(C)NC(=O)c3cccc4c3OCCNC4)nc(C)c12.Cl` [Example 53], the half-life at 1 μM in data set [3] was 1.2 h. The EC50 in data set [7] is 0.0016 µM.
The like results for `CC(C)(NC(=O)c1cccc2c1OCCNC2)c1nc(C2CC2)c2c(F)cccn12` [Example 61] were, in that order, 0.75 h and 0.0063 µM.
For the compound `Cc1cccn2c(C(C)(C)NC(=O)c3cccc4c3OCCNC4)nc(C3CC3)c12` [Example 62], the half-life at 1 μM in data set [3] turned out to be 0.533 h. Further, the EC50 in data set [7] amounted to 0.004 µM.
On the same counts, the results for `Cc1nc(C(C)(C)NC(=O)c2cccc3c2OCCNC3)c2ccccc2n1` [Example 64] are above 2.17 h and 0.0223 µM.
On the same counts, the results for `Cc1cccn2c(C(C)(C)NC(=O)c3cccc4c3OCCNC4)cnc12` [Example 70] are above 2.17 h and 0.0113 µM.
On the same counts, the results for `Cc1cccn2c(C(C)(C)NC(=O)c3cccc4c3OCCNC4)ccc12` [Example 71] are 0.183 h and 0.0029 µM.
Consider `Cc1cccn2c(C(C)(C)NC(=O)c3nccc4c3OCCNC4)ncc12` [Example 72], for which the half-life at 1 μM in data set [3] is above 2.17 h. Further, the EC50 in data set [7] is 0.0136 µM.
`Cc1cccn2c(C(C)(C)NC(=O)c3nccc4c3OCCNC4)nc(C)c12` [Example 75]: the half-life at 1 μM in data set [3] was above 2.17 h. Besides, the 50% effective concentration (EC50) in data set [7] came to 0.0104 µM.
On the same counts, the results for `Cc1cccn2c(C(C)(C)NC(=O)c3ccnc4c3OCCNC4)ncc12` [Example 78] are above 2.17 h and 0.0336 µM.
On the same counts, the results for `Cc1cccn2c(C(C)(C)NC(=O)c3cncc4c3OCCNC4)ncc12` [Example 79] are above 2.17 h and 0.0313 µM.

The values above are taken from patent publication US10183940B2, “Aryl and heteroaryl-fused tetrahydro-1,4-oxazepine amides as somatostatin receptor subtype 4 (SSTR4) agonists” (Boehringer Ingelheim International GmbH, priority 2014, dated 2019).
